Laboratory results taken from the NIST ThermoML archive (doi:10.1021/je060271a).
Several values for one entry are separate records, joined by “and”; a condition that tells them apart may be missing. Equal entries are not always repeated.

Settings: Liquid, Vibrating tube method

CCCCCC(=O)OCC(COC(=O)CCCCC)(COC(=O)CCCCC)COC(=O)CCCCC [pentaerythritol tetrahexanoate]
Settings | mass density
303.16 K, 25121 kPa | 1003.6 kg/m3
303.16 K, 25156 kPa | 1003.5 kg/m3
303.16 K, 25186 kPa | 1003.6 kg/m3
303.16 K, 25221 kPa | 1003.6 kg/m3
303.16 K, 25252 kPa | 1003.7 kg/m3
303.16 K, 25282 kPa | 1003.6 kg/m3
303.16 K, 25674 kPa | 1003.8 kg/m3
303.16 K, 25700 kPa | 1003.9 kg/m3
303.16 K, 25725 kPa | 1003.8 kg/m3
303.16 K, 25756 kPa | 1003.9 kg/m3
303.16 K, 25781 kPa | 1004 kg/m3
303.16 K, 25807 kPa | 1003.9 kg/m3
303.16 K, 25838 kPa | 1004 kg/m3
303.16 K, 25863 kPa | 1004 kg/m3
303.16 K, 25889 kPa | 1004 kg/m3
303.16 K, 28629 kPa | 1005.5 kg/m3
303.16 K, 28934 kPa | 1005.7 kg/m3
303.16 K, 28965 kPa | 1005.6 kg/m3
303.16 K, 28991 kPa | 1005.6 kg/m3
303.16 K, 29017 kPa | 1005.6 kg/m3
303.16 K, 29049 kPa | 1005.7 kg/m3
303.16 K, 29076 kPa | 1005.7 kg/m3
303.16 K, 29102 kPa | 1005.7 kg/m3
303.16 K, 29134 kPa | 1005.8 kg/m3
303.16 K, 29162 kPa | 1005.6 kg/m3
303.16 K, 29189 kPa | 1005.7 kg/m3
303.16 K, 29220 kPa | 1005.8 kg/m3
303.16 K, 29244 kPa | 1005.8 kg/m3
303.16 K, 29266 kPa | 1005.9 kg/m3
303.16 K, 29288 kPa | 1005.9 kg/m3
303.16 K, 29315 kPa | 1005.9 kg/m3
303.16 K, 29338 kPa | 1005.9 kg/m3
303.16 K, 29360 kPa | 1005.9 kg/m3
303.16 K, 29388 kPa | 1005.8 kg/m3
303.16 K, 29410 kPa | 1006 kg/m3
303.16 K, 29438 kPa | 1005.9 kg/m3
303.16 K, 30312 kPa | 1006.3 kg/m3
303.16 K, 30341 kPa | 1006.5 kg/m3
303.16 K, 30365 kPa | 1006.5 kg/m3
303.16 K, 30389 kPa | 1006.5 kg/m3
303.16 K, 30419 kPa | 1006.6 kg/m3
303.16 K, 30445 kPa | 1006.4 kg/m3
303.16 K, 30470 kPa | 1006.4 kg/m3
303.16 K, 30494 kPa | 1006.6 kg/m3
303.16 K, 30523 kPa | 1006.6 kg/m3
303.16 K, 30548 kPa | 1006.6 kg/m3
303.16 K, 30572 kPa | 1006.6 kg/m3
303.16 K, 30602 kPa | 1006.5 kg/m3
303.16 K, 30627 kPa | 1006.6 kg/m3
303.16 K, 30652 kPa | 1006.6 kg/m3
303.16 K, 30681 kPa | 1006.5 kg/m3
303.16 K, 30706 kPa | 1006.7 kg/m3
303.16 K, 30731 kPa | 1006.5 kg/m3
303.16 K, 30761 kPa | 1006.7 kg/m3
303.16 K, 30788 kPa | 1006.6 kg/m3
303.16 K, 30813 kPa | 1006.6 kg/m3
303.16 K, 30838 kPa | 1006.7 kg/m3
303.16 K, 30868 kPa | 1006.7 kg/m3
303.16 K, 30893 kPa | 1006.6 kg/m3
303.16 K, 30923 kPa | 1006.7 kg/m3
303.16 K, 30949 kPa | 1006.7 kg/m3
303.16 K, 30974 kPa | 1006.7 kg/m3
303.16 K, 31005 kPa | 1006.9 kg/m3
303.16 K, 31031 kPa | 1006.7 kg/m3
303.16 K, 31057 kPa | 1006.7 kg/m3
303.16 K, 31087 kPa | 1006.8 kg/m3
303.16 K, 31114 kPa | 1006.8 kg/m3
303.16 K, 31140 kPa | 1006.9 kg/m3
303.16 K, 32264 kPa | 1007.5 kg/m3
303.16 K, 32284 kPa | 1007.6 kg/m3
303.16 K, 32306 kPa | 1007.5 kg/m3
303.16 K, 32325 kPa | 1007.5 kg/m3
303.16 K, 32343 kPa | 1007.5 kg/m3
303.16 K, 32366 kPa | 1007.5 kg/m3
303.16 K, 32385 kPa | 1007.4 kg/m3
303.16 K, 32914 kPa | 1007.8 kg/m3
303.16 K, 32937 kPa | 1007.9 kg/m3
303.16 K, 32956 kPa | 1007.7 kg/m3
303.16 K, 32976 kPa | 1007.7 kg/m3
303.16 K, 33185 kPa | 1007.9 kg/m3
303.16 K, 33209 kPa | 1008 kg/m3
303.16 K, 33228 kPa | 1008 kg/m3
303.16 K, 33252 kPa | 1007.9 kg/m3
303.16 K, 33272 kPa | 1008.1 kg/m3
303.16 K, 33292 kPa | 1008 kg/m3
303.16 K, 33317 kPa | 1007.9 kg/m3
303.16 K, 33337 kPa | 1008.1 kg/m3
303.16 K, 33357 kPa | 1008.1 kg/m3
303.16 K, 33377 kPa | 1008.1 kg/m3
303.16 K, 33402 kPa | 1008.1 kg/m3
303.16 K, 33423 kPa | 1008 kg/m3
303.16 K, 33443 kPa | 1008.1 kg/m3
303.16 K, 33467 kPa | 1008.1 kg/m3
303.16 K, 33487 kPa | 1008.1 kg/m3
303.16 K, 33512 kPa | 1008.1 kg/m3
303.16 K, 33533 kPa | 1008.1 kg/m3
303.16 K, 33553 kPa | 1008.1 kg/m3
303.16 K, 33574 kPa | 1008.3 kg/m3
303.16 K, 33599 kPa | 1008.2 kg/m3
303.16 K, 33621 kPa | 1008.2 kg/m3
303.16 K, 33642 kPa | 1008.3 kg/m3
303.16 K, 33668 kPa | 1008.3 kg/m3
303.16 K, 33689 kPa | 1008.3 kg/m3
303.16 K, 33711 kPa | 1008.2 kg/m3
303.16 K, 33733 kPa | 1008.1 kg/m3
303.16 K, 33759 kPa | 1008.2 kg/m3
303.16 K, 33782 kPa | 1008.3 kg/m3
303.16 K, 33805 kPa | 1008.2 kg/m3
303.16 K, 33833 kPa | 1008.2 kg/m3
303.16 K, 33857 kPa | 1008.4 kg/m3
303.16 K, 33886 kPa | 1008.2 kg/m3
303.17 K, 238.4 kPa | 988.6 kg/m3
303.17 K, 238.6 kPa | 988.5 kg/m3
303.17 K, 239.1 kPa | 988.5 kg/m3
303.17 K, 272.8 kPa | 988.5 kg/m3
303.17 K, 273 kPa | 988.7 kg/m3
303.17 K, 273.3 kPa | 988.6 kg/m3
303.17 K, 273.5 kPa | 988.6 kg/m3
303.17 K, 273.6 kPa | 988.6 kg/m3
303.17 K, 355.5 kPa | 988.6 kg/m3
303.17 K, 355.8 kPa | 988.5 kg/m3
303.17 K, 356.5 kPa | 988.6 kg/m3
303.17 K, 356.8 kPa | 988.5 kg/m3
303.17 K, 357.2 kPa | 988.6 kg/m3
303.17 K, 357.5 kPa | 988.6 kg/m3
303.17 K, 361 kPa | 988.7 kg/m3
303.17 K, 361.7 kPa | 988.5 kg/m3
303.17 K, 362 kPa | 988.6 kg/m3
303.17 K, 362.4 kPa | 988.5 kg/m3
303.17 K, 362.7 kPa | 988.6 kg/m3
303.17 K, 363.1 kPa | 988.6 kg/m3
303.17 K, 363.8 kPa | 988.7 kg/m3
303.17 K, 364 kPa | 988.7 kg/m3
303.17 K, 375.4 kPa | 988.5 kg/m3
303.17 K, 376.3 kPa | 988.6 kg/m3
303.17 K, 376.5 kPa | 988.7 kg/m3 and 988.6 kg/m3
303.17 K, 377.2 kPa | 988.6 kg/m3
303.17 K, 378.5 kPa | 988.6 kg/m3
303.17 K, 1469.1 kPa | 989.4 kg/m3
303.17 K, 1484.4 kPa | 989.2 kg/m3
303.17 K, 1497.4 kPa | 989.2 kg/m3
303.17 K, 1510.5 kPa | 989.4 kg/m3
303.17 K, 1526.6 kPa | 989.4 kg/m3
303.17 K, 1540 kPa | 989.3 kg/m3
303.17 K, 1553.5 kPa | 989.4 kg/m3
